Test results as given in US7265103B2, “Substituted amino isoxazoline derivatives and their use as anti-depressants” (Janssen Pharmaceutica NV., priority 2002, dated 2007).
Where a name gives a salt, the structure may show the parent alone.

Legend:
h5-HT transporter = target: T1, h5-HT transporter (Homo sapiens, UniProt P31645); test: Radioligand binding experiment for 5-HT transporter ([3H]paroxetine); details: human platelet membranes, [3H]paroxetine 0.5 nM
T1 construct: Human platelet membranes (Oceanix Biosciences Corporation, Hanover, Md., USA) were thawed; tissue Oceanix Biosciences Corporation; host or cells: human platelet membranes
Outline: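 Competition binding on human platelet membranes (50-100 μg protein) in 50 mM Tris-HCl, 120 mM NaCl, 5 mM KCl with 0.5 nM [3H]paroxetine, 60 min at 25 °C, filtration and scintillation counting. Non-specific binding defined with 1 μM imipramine; pIC50 from nonlinear sigmoidal fits of percent total binding.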

hα2A receptor = target: T2, hα2A receptor (Homo sapiens, UniProt P08913); test: Radioligand binding experiment for α2A-adrenergic receptor ([3H]-raulwolscine); details: CHO cell membranes with human α2A receptor, [3H]raulwolscine 1 nM; read-out: pIC50 α2A (converted)
T2 construct: expressed in transfected cells; host or cells: CHO cells
T2 sequence (P08913 1-465): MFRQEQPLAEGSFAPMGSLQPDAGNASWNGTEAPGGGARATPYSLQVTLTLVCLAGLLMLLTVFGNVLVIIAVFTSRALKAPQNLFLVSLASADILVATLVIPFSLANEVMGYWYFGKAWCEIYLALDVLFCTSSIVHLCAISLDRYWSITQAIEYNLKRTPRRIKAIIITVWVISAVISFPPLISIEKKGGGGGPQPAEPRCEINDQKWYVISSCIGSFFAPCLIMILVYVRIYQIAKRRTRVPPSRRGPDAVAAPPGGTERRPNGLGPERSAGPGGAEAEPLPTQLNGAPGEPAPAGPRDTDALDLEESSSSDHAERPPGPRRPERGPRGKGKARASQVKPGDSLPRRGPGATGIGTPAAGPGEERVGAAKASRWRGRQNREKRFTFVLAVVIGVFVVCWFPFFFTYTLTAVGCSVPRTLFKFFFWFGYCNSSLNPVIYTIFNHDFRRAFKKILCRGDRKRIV
Outline: (§1)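 Membranes from CHO cells stably expressing human α2A or α2C receptors (sodium butyrate-induced) incubated with 1 nM [3H]raulwolscine in 25 mM glycylglycine pH 8.0 for 60 min at 25° C, then filtered. Non-specific binding defined with 1 μM oxymetazoline (α2A) or 1 μM spiroxatrine (α2C); pIC50 from sigmoidal competition curves.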

hα2C receptor = target: T3, hα2C receptor (Homo sapiens, UniProt P18825); test: Radioligand binding experiment for α2C-adrenergic receptor ([3H]-raulwolscine); details: CHO cell membranes with human α2C receptor, [3H]raulwolscine 1 nM; read-out: pIC50 α2C (converted)
T3 construct: expressed in transfected cells; host or cells: CHO cells
T3 sequence (P18825 1-462): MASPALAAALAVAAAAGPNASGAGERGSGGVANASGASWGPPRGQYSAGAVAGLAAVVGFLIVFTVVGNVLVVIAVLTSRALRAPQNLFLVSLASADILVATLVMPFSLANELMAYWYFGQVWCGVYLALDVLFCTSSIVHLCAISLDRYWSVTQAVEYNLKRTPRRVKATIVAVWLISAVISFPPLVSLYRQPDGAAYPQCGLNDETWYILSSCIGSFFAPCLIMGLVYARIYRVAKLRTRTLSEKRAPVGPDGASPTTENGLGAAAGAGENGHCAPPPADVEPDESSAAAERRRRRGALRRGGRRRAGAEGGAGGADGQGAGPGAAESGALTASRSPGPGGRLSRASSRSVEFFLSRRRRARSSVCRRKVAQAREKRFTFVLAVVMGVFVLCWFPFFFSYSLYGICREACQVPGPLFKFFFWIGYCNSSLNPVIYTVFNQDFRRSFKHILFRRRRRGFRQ
Outline: as §1

T1 sequence (P31645 whole entry): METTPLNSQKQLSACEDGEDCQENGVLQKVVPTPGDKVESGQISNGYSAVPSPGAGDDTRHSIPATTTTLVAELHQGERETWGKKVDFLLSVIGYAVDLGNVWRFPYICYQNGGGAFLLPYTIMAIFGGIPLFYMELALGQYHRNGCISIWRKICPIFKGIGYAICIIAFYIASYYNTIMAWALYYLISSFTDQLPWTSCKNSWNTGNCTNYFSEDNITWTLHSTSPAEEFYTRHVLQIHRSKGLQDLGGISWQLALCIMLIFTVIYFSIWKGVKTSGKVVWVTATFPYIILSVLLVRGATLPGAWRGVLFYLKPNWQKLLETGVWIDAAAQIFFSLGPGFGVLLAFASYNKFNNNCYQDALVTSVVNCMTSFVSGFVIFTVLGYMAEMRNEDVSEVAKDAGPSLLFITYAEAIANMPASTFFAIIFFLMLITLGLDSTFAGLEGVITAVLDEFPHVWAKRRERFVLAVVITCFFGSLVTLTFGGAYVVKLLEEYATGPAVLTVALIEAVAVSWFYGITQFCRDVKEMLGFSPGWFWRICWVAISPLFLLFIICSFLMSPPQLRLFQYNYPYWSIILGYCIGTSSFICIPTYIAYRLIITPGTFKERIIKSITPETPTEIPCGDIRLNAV

| SMILES | melting point | IC50 (h5-HT transporter) | IC50 (hα2A receptor) | IC50 (hα2C receptor) |
| --- | --- | --- | --- | --- |
| CC(=Cc1ccc(F)cc1)CN1CCN(CC2ON=C3c4ccc(N(C)CCN)cc4OCC32)CC1 (stereo not shown) (as salt: HCl) [Compound 19] | 218 to 226 °C |  |  |  |
| CNCCNc1ccc2c(c1)OCC1C2=NOC1CN1CCN(CC(C)=Cc2ccc(F)cc2)CC1 (stereo not shown) (as salt: HCl) [Compound 20] | 199 to 235.5 °C |  |  |  |
| C/C(=C\c1ccccc1)CN1CCN(CC2ON=C3c4ccc(NCc5ccccc5)cc4OCC32)CC1 (stereo not shown) [Compound 2] | 108.9 to 114.7 °C | 31.6 nM | 15.8 nM |  |
| C/C(=C\c1ccc(F)cc1)CN1CCN(CC2ON=C3c4ccc(NS(=O)(=O)c5ccc(C)cc5)cc4OCC32)CC1 (stereo not shown) [Compound 3] | 177 to 194.1 °C | 39.8 nM | 79.4 nM | 31.6 nM |
| C/C(=C\c1ccccc1)CN1CCN(CC2ON=C3c4cc(N5CCOCC5)ccc4OCC32)CC1 (stereo not shown) [Compound 4] | 121.8 to 125.9 °C | > 1000 nM | 12.6 nM | 2.51 nM |
| C/C(=C\c1ccccc1)CN1CCN(CC2ON=C3c4ccc(N)cc4OCC32)CC1 (stereo not shown) [Compound 5] | 134.1 to 136.2 °C | 100 nM | 2.51 nM | 3.98 nM |
| CC(=O)Nc1ccc2c(c1)OCC1C2=NOC1CN1CCN(C/C(C)=C/c2ccccc2)CC1 (stereo not shown) [Compound 6] | 112.1 to 126.7 °C | 50.1 nM | 3.16 nM | 2.51 nM |
| COc1ccc(NC(=O)Nc2ccc3c(c2)OCC2C3=NOC2CN2CCN(C/C(C)=C/c3ccccc3)CC2)cc1OC (stereo not shown) [Compound 7] | 202.2 to 207.1 °C | 31.6 nM | 15.8 nM | 5.01 nM |
| COc1cc2c(cc1NCCN(C)C)OCC1C2=NOC1CN1CCN(C/C(C)=C/c2ccccc2)CC1 (stereo not shown) [Compound 9] | 154.5 to 157.9 °C | 5.01 nM | 5.01 nM | 1000 nM |
| COCC(=O)N1CCOc2cc3c(cc21)OCC1C3=NOC1CN1CCN(C/C(C)=C/c2ccccc2)CC1 (stereo not shown) [Compound 15] | 118.9 to 127.6 °C | 10 nM | 3.16 nM | 0.794 nM |
| CNCCN(C)c1ccc2c(c1)OCC1C2=NOC1CN1CCN(CC(C)=Cc2ccc(F)cc2)CC1 (stereo not shown) [Compound 21] | 98.4 to 105.3 °C | 3.98 nM | 7.94 nM | 2 nM |
| COc1cc2c(cc1NCCN(C)C)OCC1C2=NOC1CN1CCN(CC(C)=Cc2ccc(F)cc2)CC1 (stereo not shown) [Compound 24] | 157.7 to 159.9 °C | 5.01 nM | 25.1 nM | 1.58 nM |
| COc1cc2c(cc1NCCN1CCCC1)OCC1C2=NOC1CN1CCN(CC(C)=Cc2ccccc2)CC1 (stereo not shown) [Compound 26] | 120.4 to 123 °C | 3.16 nM | 5.01 nM | < 1 nM |
| CC(=Cc1ccc(F)cc1)CN1CCN(CC2ON=C3c4ccc(NCCN5CCCC5)cc4OCC32)CC1 (stereo not shown) [Compound 28] | 108.3 to 121.8 °C | 3.16 nM | 63.1 nM | 3.98 nM |
| COc1cc2c(cc1NC(=O)C1CCC1)OCC1C2=NOC1CN1CCN(CC(C)=Cc2ccc(F)cc2)CC1 (stereo not shown) [Compound 115] |  | 25.1 nM | 39.8 nM | 39.8 nM |
| COc1cc2c(cc1NCC(C)C)OCC1C2=NOC1CN1CCN(CC(C)=Cc2ccc(F)cc2)CC1 (stereo not shown) [Compound 116] |  | 79.4 nM | 200 nM | 158 nM |
| CC(=Cc1ccc(F)cc1)CN1CCN(CC2ON=C3c4ccc(N(C)CCOC(=O)CC(C)(C)C)cc4OCC32)CC1 (stereo not shown) [Compound 117] |  | 100 nM | 251 nM | 126 nM |
| CC(=Cc1ccc(F)cc1)CN1CCN(CC2ON=C3c4ccc(N(C)CCNCC5CC5)cc4OCC32)CC1 (stereo not shown) [Compound 118] |  | 3.16 nM | 12.6 nM | 3.16 nM |
| CC(=Cc1ccc(F)cc1)CN1CCN(CC2ON=C3c4ccc(N(C)CCNCC(C)O)cc4OCC32)CC1 (stereo not shown) [Compound 119] |  | 3.16 nM | 10 nM | 3.16 nM |
| CCC(C)(C)NCCN(C)c1ccc2c(c1)OCC1C2=NOC1CN1CCN(CC(C)=Cc2ccc(F)cc2)CC1 (stereo not shown) [Compound 120] |  | 2.51 nM | 39.8 nM | 6.31 nM |

| SMILES | melting point | IC50 (h5-HT transporter) | IC50 (hα2A receptor) | IC50 (hα2C receptor) |
| --- | --- | --- | --- | --- |
| C=CCN(C)CCN(C)c1ccc2c(c1)OCC1C2=NOC1CN1CCN(CC(C)=Cc2ccc(F)cc2)CC1 (stereo not shown) [Compound 121] |  | 158 nM | 501 nM | 100 nM |
| CC(=Cc1ccc(F)cc1)CN1CCN(CC2ON=C3c4ccc(N(C)CCN(C)C(C)(C)C)cc4OCC32)CC1 (stereo not shown) [Compound 122] |  | 6.31 nM | 39.8 nM | 7.94 nM |
| CC(=Cc1ccc(F)cc1)CN1CCN(CC2ON=C3c4ccc(N(C)CCN5CCC5)cc4OCC32)CC1 (stereo not shown) [Compound 123] |  | 7.94 nM | 10 nM | 3.16 nM |
| COc1cc2c(cc1NC(=O)Nc1ccccc1)OCC1C2=NOC1CN1CCN(CC(C)=Cc2ccc(F)cc2)CC1 (stereo not shown) [Compound 124] |  | 50.1 nM | 316 nM | 158 nM |
| CC(=Cc1ccc(F)cc1)CN1CCN(CC2ON=C3c4ccc(N5CCCCCC5)cc4OCC32)CC1 (stereo not shown) [Compound 125] |  | 158 nM | 200 nM | 158 nM |
| COc1cc2c(cc1NCC1CC1C)OCC1C2=NOC1CN1CCN(CC(C)=Cc2ccc(F)cc2)CC1 (stereo not shown) [Compound 126] |  | 126 nM | 63.1 nM | 126 nM |
| CCC(C)NC(=O)OCCN(C)c1ccc2c(c1)OCC1C2=NOC1CN1CCN(CC(C)=Cc2ccc(F)cc2)CC1 (stereo not shown) [Compound 127] |  | 200 nM | 316 nM | 158 nM |
| COc1cc2c(cc1NCC1(C)CC1)OCC1C2=NOC1CN1CCN(CC(C)=Cc2ccc(F)cc2)CC1 (stereo not shown) [Compound 128] |  | 158 nM | 200 nM | 200 nM |
| CC(=Cc1ccc(F)cc1)CN1CCN(CC2ON=C3c4ccc(NC(C)C)cc4OCC32)CC1 (stereo not shown) [Compound 129] |  | 158 nM | 63.1 nM | 31.6 nM |
| CC(=Cc1ccc(F)cc1)CN1CCN(CC2ON=C3c4ccc(NCC5CC5)cc4OCC32)CC1 (stereo not shown) [Compound 130] |  | 126 nM | 126 nM | 25.1 nM |
| CCC(C)Nc1ccc2c(c1)OCC1C2=NOC1CN1CCN(CC(C)=Cc2ccc(F)cc2)CC1 (stereo not shown) [Compound 131] |  | 63.1 nM | 158 nM | 50.1 nM |
| CC(=Cc1ccc(F)cc1)CN1CCN(CC2ON=C3c4ccc(NCC(C)O)cc4OCC32)CC1 (stereo not shown) [Compound 132] |  | 63.1 nM | 25.1 nM | 31.6 nM |
| CCCCCNc1ccc2c(c1)OCC1C2=NOC1CN1CCN(CC(C)=Cc2ccc(F)cc2)CC1 (stereo not shown) [Compound 133] |  | 126 nM | 126 nM | 126 nM |
| CC(=Cc1ccc(F)cc1)CN1CCN(CC2ON=C3c4ccc(NC(C)CO)cc4OCC32)CC1 (stereo not shown) [Compound 134] |  | 126 nM | 63.1 nM | 126 nM |
| CC(=Cc1ccc(F)cc1)CN1CCN(CC2ON=C3c4ccc(N5CC=CCC5)cc4OCC32)CC1 (stereo not shown) [Compound 135] |  | 79.4 nM | 39.8 nM | 25.1 nM |
| CC(=Cc1ccc(F)cc1)CN1CCN(CC2ON=C3c4ccc(N5CCNCC5)cc4OCC32)CC1 (stereo not shown) [Compound 136] |  | 7.94 nM | 39.8 nM | 5.01 nM |
| CC(=Cc1ccc(F)cc1)CN1CCN(CC2ON=C3c4ccc(NC(N)=O)cc4OCC32)CC1 (stereo not shown) [Compound 137] |  | 20 nM | 6.31 nM | 10 nM |
| CC(=Cc1ccc(F)cc1)CN1CCN(CC2ON=C3c4ccc(NC(=O)C5CC5)cc4OCC32)CC1 (stereo not shown) [Compound 138] |  | 50.1 nM | 31.6 nM | 31.6 nM |
| CC(=Cc1ccc(F)cc1)CN1CCN(CC2ON=C3c4ccc(N5CCC(C)C5=O)cc4OCC32)CC1 (stereo not shown) [Compound 139] |  | 126 nM | 15.8 nM | 7.94 nM |
